This note sets out measurements from patent US8680269B2, “Pesticidal compositions” (Dow AgroSciences, LLC., priority 2009, dated 2014).

Structures are written as SMILES. A value given as a limit tells only on which side of the number the result lay.

Format in all cases: in vivo
The subject of assay [1] is green peach aphid (Myzus persicae). In words: Insecticidal test for green peach aphid in foliar spray assay. The note with it: 72 h, 200 ppm foliar spray on cabbage seedlings, graded after three days, Abbott corrected % control, read-out: Mortality GPA 200 ppm. On the procedure:
Cabbage seedlings grown in 3-inch pots, with 2-3 small (3-5 cm) true leaves, were used as test substrate. The seedlings were infested with 20-50 green peach aphids (wingless adult and nymph) one day prior to chemical application. Four pots with individual seedlings were used for each treatment. Compounds (2 mg) were dissolved in 2 mL of acetone/methanol (1:1) solvent, forming stock solutions of 1000 ppm. The stock solutions were diluted 5× with 0.025% Tween 20 in H2O to obtain the test solution at 200 ppm. A hand-held Devilbiss sprayer was used for spraying a solution to both sides of cabbage leaves until runoff. Reference plants (solvent check) were sprayed with the diluent only. Treated plants were held in a holding room for three days at approximately 25° C. and 40% relative humidity (RH) prior to grading. Evaluation was conducted by counting the number of live aphids per plant under a microscope. Insecticidal activity data, measured by using Abbott's correction formula, are presented in Table 2: Corrected % Control=100*(X−Y)/X • where X=No. of live aphids on solvent check plants • Y=No. of live aphids on treated plants

The subject of assay [2] is beet armyworm (BAW; Spodoptera exigua). In words: Insecticidal test for beet armyworm, 128-well diet tray assay. The following applies: 144 h, 50 μg/cm2 on artificial diet, second instar larvae, six days at 25° C. On the procedure: (§1) Bioassays on beet armyworm (BAW; Spodoptera exigua: Lepidoptera) were conducted using a 128-well diet tray assay. Three to five second instar BAW larvae were placed in each well (3 mL) of the diet tray that had been previously filled with 1 mL of artificial diet to which 50 μg/cm^2 of the test compound (dissolved in 50 μL of 90:10 acetone-water mixture) had been applied (to each of eight wells) and then allowed to dry. Trays were covered with a clear self-adhesive cover, and held at 25° C., 14:10 light-dark for six days. Percent mortality was recorded for the larvae in each well; activity in the eight wells was then averaged.

Assay [3] deals with corn earworm (CEW; Helicoverpa zea). In words: Insecticidal test for corn earworm, 128-well diet tray assay. The note with it: 144 h, 50 μg/cm2 on artificial diet, second instar larvae, six days at 25° C. On the procedure: as §1, with “corn earworm (CEW; Helicoverpa zea:” for “beet armyworm (BAW; Spodoptera exigua:”, “CEW” for “BAW”

Regarding `CC(=O)Nc1cccc(NC(=S)N/N=C/c2ccc(-c3ncn(-c4ccc(OC(F)(F)F)cc4)n3)cc2)n1` [Compound 44], in assay [1], the mortality at 200 ppm was < 80%. In addition, the mortality at 50 µg/cm2 in assay [2] and in assay [3] was < 50% in each case.

As to `FC(F)(F)Oc1ccc(-n2cnc(-c3ccc(/C=N/NC(=S)Nc4ccc(Cl)cc4Cl)cc3)n2)cc1` [Compound 55], the mortality at 200 ppm in assay [1] was < 80%. The mortality at 50 µg/cm2 in assay [2] and in assay [3] was < 50% each time.

With `CSc1ccccc1NC(=S)N/N=C/c1ccc(-c2ncn(-c3ccc(OC(F)(F)F)cc3)n2)cc1` [Compound 75], in assay [1], the mortality at 200 ppm is < 80%. For the same compound, the mortality at 50 µg/cm2 in assay [2] and in assay [3] was 50 to 100% throughout.

For the compound `CN(C)c1ccc(NC(=S)N/N=C/c2ccc(-c3ncn(-c4ccc(OC(F)(F)F)cc4)n3)cc2)c(C(F)(F)F)c1` [Compound 49], the mortality at 200 ppm in assay [1] is < 80%. For the same compound, the mortality at 50 µg/cm2 in assay [2] and in assay [3] was 50 to 100% each time.

In the case of `CCc1ccccc1NC(=S)N/N=C/c1ccc(-c2ncn(-c3ccc(OC(F)(F)F)cc3)n2)cc1` [Compound 62], the mortality at 200 ppm in assay [1] was < 80%. For the same compound, the mortality at 50 µg/cm2 in assay [2] and in assay [3] was 50 to 100% each time.

As to `COc1ccc(NC(=S)N/N=C/c2ccc(-c3ncn(-c4ccc(OC(F)(F)F)cc4)n3)cc2)c(OC)c1` [Compound 45], the mortality at 200 ppm in assay [1] was < 80%. The mortality at 50 µg/cm2 in assay [2] and in assay [3] was 50 to 100% in each case.

On to `FC(F)(F)C(F)(F)Oc1ccc(-n2cnc(-c3ccc(/C=N/NC(=S)NCCc4ccccn4)cc3)n2)cc1` [Compound 9], for which the mortality at 200 ppm in assay [1] is < 80%. Moreover, the mortality at 50 µg/cm2 in assay [2] and in assay [3] was 50 to 100% in each case.

For the compound `FC(F)(F)Oc1ccc(-n2cnc(-c3ccc(/C=N/NC(=S)Nc4c(Cl)cccc4Cl)cc3)n2)cc1` [Compound 29], the mortality at 200 ppm in assay [1] is < 80%. In addition, the mortality at 50 µg/cm2 in assay [2] and in assay [3] was 50 to 100% throughout.

In the case of `FC(F)(F)Oc1ccc(NC(=S)N/N=C/c2ccc(-c3ncn(-c4ccc(OC(F)(F)F)cc4)n3)cc2)cc1` [Compound 26], the mortality at 200 ppm in assay [1] is < 80%. Further, the mortality at 50 µg/cm2 in assay [2] and in assay [3] was 50 to 100% in each case.

With `COCCNC(=S)N/N=C/c1ccc(-c2ncn(-c3ccc(OC(F)(F)F)cc3)n2)cc1` [Compound 18], the mortality at 200 ppm in assay [1] was < 80%. In addition, the mortality at 50 µg/cm2 in assay [2] and in assay [3] was 50 to 100% throughout.

Turning to `FC(F)(F)Oc1ccc(-n2cnc(-c3ccc(/C=N/NC(=S)Nc4ccccc4)cc3)n2)cc1` [Compound 14], the mortality at 200 ppm in assay [1] is < 80%. Moreover, the mortality at 50 µg/cm2 in assay [2] and in assay [3] was 50 to 100% each time.

Take `CC(=O)N(C)c1ccc(NC(=S)N/N=C/c2ccc(-c3ncn(-c4ccc(OC(F)(F)F)cc4)n3)cc2)cc1` [Compound 40]: in assay [1], the mortality at 200 ppm is < 80%. Besides, the mortality at 50 µg/cm2 in assay [2] and in assay [3] was 50 to 100% in each case.

Regarding `COc1cc(C)c(NC(=S)N/N=C/c2ccc(-c3ncn(-c4ccc(C(F)(F)F)cc4)n3)cc2)c(C)c1` [Compound 127], the mortality at 200 ppm in assay [1] is < 80%. Moreover, the mortality at 50 µg/cm2 in assay [2] and in assay [3] was 50 to 100% each time.

For the compound `Fc1ccccc1CNC(=S)N/N=C/c1ccc(-c2ncn(-c3ccc(OC(F)(F)F)cc3)n2)cc1` [Compound 22], in assay [1], the mortality at 200 ppm was < 80%. Besides, the mortality at 50 µg/cm2 in assay [2] and in assay [3] was 50 to 100% in each case.

With `Cc1cccc(C)c1NC(=S)N/N=C/c1ccc(-c2ncn(-c3ccc(OC(F)(F)F)cc3)n2)cc1` [Compound 78], in assay [1], the mortality at 200 ppm is < 80%. In addition, the mortality at 50 µg/cm2 in assay [2] and in assay [3] was 50 to 100% each time.

With `O=C(c1ccccc1NC(=S)N/N=C/c1ccc(-c2ncn(-c3ccc(OC(F)(F)F)cc3)n2)cc1)C(F)(F)F` [Compound 61], the mortality at 200 ppm in assay [1] was < 80%. Moreover, the mortality at 50 µg/cm2 in assay [2] and in assay [3] was 50 to 100% in each case.

Take `FC(F)(F)c1ccc(-c2cn(-c3ccc(/C=N/NC(=S)Nc4c(Cl)cccc4Cl)cc3)cn2)cc1` [Compound 70]: the mortality at 200 ppm in assay [1] was < 80%. Also, the mortality at 50 µg/cm2 in assay [2] and in assay [3] was 50 to 100% throughout.

As for `FC(F)(F)Oc1ccc(-n2cnc(-c3ccc(/C=N/NC(=S)NCc4ccccc4)cc3)n2)cc1` [Compound 3, N-benzyl-2-(4-(1-(4-(trifluoromethoxy)phenyl)-1H-1,2,4-triazol-3-yl)benzylidene)hydrazinecarbothioamide], in assay [1], the mortality at 200 ppm is < 80%. Further, the figures for the mortality at 50 µg/cm2 in assay [2] and in assay [3] were 50 to 100% and < 50%, respectively.

For `Fc1cccc(Cl)c1NC(=S)N/N=C/c1ccc(-c2ncn(-c3ccc(OC(F)(F)F)cc3)n2)cc1` [Compound 63], in assay [1], the mortality at 200 ppm was < 80%. In addition, the mortality at 50 µg/cm2 in assay [2] and in assay [3] was 50 to 100% in each case.

For `Cc1ccc(NC(=S)N/N=C/c2ccc(-c3ncn(-c4ccc(OC(F)(F)F)cc4)n3)cc2)c(C(C)C)c1` [Compound 96], the mortality at 50 µg/cm2 in assay [2] and in assay [3] was 50 to 100% throughout.

Regarding `COc1cc(F)c(NC(=S)N/N=C/c2ccc(-c3ncn(-c4ccc(OC(F)(F)F)cc4)n3)cc2)c(F)c1` [Compound 108], the mortality at 50 µg/cm2 in assay [2] and in assay [3] was 50 to 100% each time.

With `Cc1cc(C)c(NC(=S)N/N=C/c2ccc(-c3ncn(-c4ccc(OC(F)(F)F)cc4)n3)cc2)c(C)c1` [Compound 93], the mortality at 50 µg/cm2 in assay [2] and in assay [3] was 50 to 100% each time.

Turning to `CC(NC(=S)N/N=C/c1ccc(-c2ncn(-c3ccc(OC(F)(F)F)cc3)n2)cc1)c1ccc(Br)cc1` (centres unmarked) [Compound 146], the mortality at 50 µg/cm2 in assay [2] and in assay [3] was 50 to 100% each time.

Take `Cc1ccc(Cl)c(C)c1NC(=S)N/N=C/c1ccc(-c2ncn(-c3ccc(OC(F)(F)F)cc3)n2)cc1` [Compound 101]: the mortality at 50 µg/cm2 in assay [2] and in assay [3] was 50 to 100% throughout.

`COc1cc(Cl)c(NC(=S)N/N=C/c2ccc(-c3ncn(-c4ccc(OC(F)(F)F)cc4)n3)cc2)c(Cl)c1` [Compound 115]: the mortality at 50 µg/cm2 in assay [2] and in assay [3] was 50 to 100% each time.

With `Cc1ccnc(C)c1NC(=S)N/N=C/c1ccc(-c2ncn(-c3ccc(OC(F)(F)F)cc3)n2)cc1` [Compound 102], the mortality at 50 µg/cm2 in assay [2] and in assay [3] was 50 to 100% each time.

For the compound `Fc1cccc(Br)c1NC(=S)N/N=C/c1ccc(-c2ncn(-c3ccc(OC(F)(F)F)cc3)n2)cc1` [Compound 105], the mortality at 50 µg/cm2 in assay [2] and in assay [3] was 50 to 100% in each case.

As to `Cc1cccc(C)c1NC(=S)N/N=C/c1ccc(-c2ccn(-c3ccc(OC(F)(F)F)cc3)n2)cc1` [Compound 136], the mortality at 50 µg/cm2 in assay [2] and in assay [3] was 50 to 100% throughout.

Turning to `Cc1ccsc1CNC(=S)N/N=C/c1ccc(-c2ncn(-c3ccc(OC(F)(F)F)cc3)n2)cc1` [Compound 156], the mortality at 50 µg/cm2 in assay [2] and in assay [3] was 50 to 100% in each case.

Regarding `Fc1cc(F)c(NC(=S)N/N=C/c2ccc(-c3ncn(-c4ccc(OC(F)(F)F)cc4)n3)cc2)c(F)c1` [Compound 98], the mortality at 50 µg/cm2 in assay [2] and in assay [3] was 50 to 100% in each case.

Take `Cc1cc(C)c(NC(=O)N/N=C/c2ccc(-c3ncn(-c4ccc(OC(F)(F)F)cc4)n3)cc2)c(C)c1` [Compound 118]: the mortality at 50 µg/cm2 in assay [2] and in assay [3] was 50 to 100% in each case.

Turning to `CCCc1ccccc1NC(=S)N/N=C/c1ccc(-c2ncn(-c3ccc(OC(F)(F)F)cc3)n2)cc1` [Compound 82], the mortality at 50 µg/cm2 in assay [2] and in assay [3] was 50 to 100% each time.

For `FC(F)(F)Oc1ccc(-n2cnc(-c3ccc(/C=N/NC(=S)Nc4c(Br)cccc4Br)cc3)n2)cc1` [Compound 48], the mortality at 50 µg/cm2 in assay [2] and in assay [3] was 50 to 100% in each case.

As to `FC(F)(F)Oc1ccc(N2CCC(c3ccc(/C=N/NC(=S)Nc4c(Cl)cccc4Cl)cc3)=N2)cc1` [Compound 141], the mortality at 50 µg/cm2 in assay [2] and in assay [3] was 50 to 100% throughout.

Consider `COc1cc(C)c(NC(=S)N/N=C/c2ccc(-c3ncn(-c4ccc(OC(F)(F)F)cc4)n3)cc2)c(C)c1` [Compound 116], for which the mortality at 50 µg/cm2 in assay [2] and in assay [3] was 50 to 100% in each case.

A word on the mortality: it is the share of the test organisms that died.
